≈ marks a conversion by molar mass, not a printed value. Read-outs that look alike come from different tables or passages of the source.
Key:
VZV strain Ellen = assay: VZV antiviral (ELISA) assay; type: cell-based
Method: For the generation of stock VZV to be used in the assay, VZV strain Ellen (ATCC #VR-1367) is used to infect human foreskin fibroblast (HFF) cells at low multiplicity (less than 0.1) and incubated overnight at 37°C in 5% CO2. After the overnight incubation, the mixture of uninfected and VZV-infected HFF infected cells are then harvested and added to each well of 96-well plates (3.5x10^4 cells in 100 µl DMEM supplemented with 2% FBS) which contain test compound or the reference standard drug control (in 100µl DMEM supplemented with 2% FBS per well). These cells are incubated for three days at 37°C in 5% CO2, then fixed for ELISA assay. The primary antibody is murine anti-VZV glycoprotein II monoclonal antibody (Applied Biosystems, Inc. #13-145-100) and the secondary antibody is goat anti-mouse IgG linked to β-galactosidase. Thus the extent of viral replication is determined by assessing β-galactosidase activity by quantifying the generation of the 4-methyl umbelliferone fluorescent cleavage product after addition of the methyl umbelliferyl-β-D-galactoside (Sigma #M1633) substrate on a microfluorimeter (365nm for excitation and 450nm for emission). Antiviral activity (IC50) of the test compound is determined by comparing the flourescence obtained in absence of compound to that obtained in the presence of compound.

[1] = tested on: HCMV recombinant mutant virus whose genome contains the prokaryotic beta-glucuronidase gene; assay: microbe, parasite or virus in culture; type: cell-based, human cytomegalovirus; details: for IC50: Human betaherpesvirus 5, Fibroblast
Excerpt: Microtiter plate assay. Ninety-six well plate cultures of human foreskin fibroblasts are infected in the presence of inhibitor compound with a HCMV recombinant mutant virus whose genome contains the prokaryotic beta-glucuronidase gene (Jefferson, R. A., S. M. Burgess, and D. Hirsh. 1986. Beta-glucuronidase from Escherichia coli as a gene fusion marker. Proc. Natl. Acad. Sci. USA 83:8447-8451) whose expression is controlled by a viral promoter. An example of such a virus is RV145 (Jones, T. R., V. P. Muzithras, and Y. Gluzman. 1991. Replacement mutagenesis of the human cytomegalovirus genome: US10 and US11 gene products are nonessential. J. Virol. 65:5860-5872). Since it is under the control of a viral promoter, beta-glucuronidase expression is an indirect indicator of growth and replication of HCMV in this assay. At 96 hours post-infection, the infected cell lysates are prepared (using 50mM sodium phosphate [pH7.0] containing 0.1% Triton X-100 and 0.1% sarkosyl) and assayed for beta-glucuronidase activity using a substrate for the enzyme which when cleaved yields either a product which can be measured colorimetrically in a spectrophotometer or fluorescently in a microfluorimeter. Examples of such substrates are p-nitrophenyl-beta-D-glucuronide and methylumbelliferylglucuronide, respectively. The presence of an antiviral compound is indicated by the reduced expression of the HCMV genome resident beta-glucuronidase gene, compared to the absence of inhibitor. […] Data from this assay generated using varying amounts of inhibitor compound is also used to estimate the IC50 of an inhibitor compound.

[2] = Human alphaherpesvirus 3, VZV strain Ellen, HFF cells, ELISA, read-out: IC50 (ug/ml) VZV
[3] = read-out: IC50 ug/ml HCMV, HCMV, human foreskin fibroblasts
[4] = Human alphaherpesvirus 3, HFF, read-out: IC50 (ug/ml) VZV, VZV strain Ellen, HFF cells, ELISA

Compound	IC50 (VZV strain Ellen; [2])	IC50 [1, 3]	IC50 (VZV strain Ellen; [4])	other results
CC(NC(=S)Nc1ccc(NC(=O)c2ccccc2I)cc1)c1ccc(F)cc1 (stereo not shown) [Example 812, N-(4-{3-[1-(4-Fluoro-phenyl)-ethyl]-thioureido}-phenyl)-2-iodo-benzamide]	3.4 µg/mL (≈ 6.55 µM)	–	–	–
O=C(Nc1ccc(NC(=S)NCCOc2ccccc2)cc1)c1ccccc1F [Example 625, 2-Fluoro-N-{4-[3-(2-phenoxy-ethyl)-thioureido]-phenyl}-benzamide]	4 µg/mL (≈ 9.77 µM)	–	–	–
COc1ccccc1C(=O)Nc1ccc(NC(=S)N[C@@H](C)c2ccc(Br)cc2)cc1 [Example 1104, N-(4-{3-[(1S)-1-(4-Bromo-phenyl)-ethyl]-thioureido}-phenyl)-2-methoxy-benzamide]	–	4.9 µg/mL (≈ 10.1 µM)	0.09 µg/mL (≈ 0.186 µM)	–
CCC(C)Cc1cc(NC(=S)Nc2ccc(NC(=O)c3ccccc3F)cc2)cc(C(F)(F)F)c1 (stereo not shown) [Example 577, 2-Fluoro-N-(4-{3-[3-(2-methyl-butyl)-5-trifluoromethyl-phenyl]-thioureido}-phenyl)-benzamide]	–	–	> 7.5 µg/mL	–
C[C@H](NC(=S)Nc1ccc(NC(=O)c2nccc3ccccc23)cc1)c1ccc(Cl)cc1 [Example 1109, Isoquinoline-1-carboxylic acid (4-{3-[(1S)-1-(4-chloro-phenyl)-ethyl]-thioureido) -phenyl)-amide]	0.03 µg/mL (≈ 0.0651 µM)	–	–	IC50 ([1]; read-out: IC50 ug/ml HCMV): 4.4 µg/mL (≈ 9.54 µM)
O=C(Nc1ccc(NC(=S)Nc2cc(N3CCOCC3)cc(C(F)(F)F)c2)cc1)c1ccccc1F [Example 568, 2-Fluoro-N-{4-[3-(3-morpholin-4-yl-5-trifluoromethyl-phenyl)-thioureido]-phenyl}-benzamide]	–	> 0.5 µg/mL	2.3 µg/mL (≈ 4.44 µM)	–
C[C@H](NC(=S)Nc1ccc(NC(=O)c2ccc(F)cc2)cc1)c1ccc(Br)cc1 [Example 1103, N-(4-{3-[(1S)-1-(4-Bromo-phenyl)-ethyl]-thioureido}-phenyl)-4-fluoro-benzamide]	–	3.4 µg/mL (≈ 7.2 µM)	0.47 µg/mL (≈ 0.995 µM)	–
O=C(Nc1ccc(NC(=S)Nc2cc(N3CCCC3)cc(C(F)(F)F)c2)cc1)c1ccccc1F [Example 566, 2-Fluoro-N-{4-[3-(3-pyrrolidin-1-yl-5-trifluoromethyl-phenyl)-thioureido]-phenyl}-benzamide]	–	> 0.5 µg/mL	2 µg/mL (≈ 3.98 µM)	–
CN1CCC(N(C)c2ccc(NC(=S)Nc3ccc(NC(=O)c4ccccc4F)cc3)cc2Cl)CC1 [Example 855, N-[4-(3-{3-Chloro-4-[methyl-(1-methyl-piperidin-4-yl)-amino]-phenyl}-thioureido)-phenyl]-2-fluoro-benzamide]	> 10 µg/mL	–	–	IC50 ug/ml HCMV ([1]; HCMV, human foreskin fibroblasts): 0.7 µg/mL (≈ 1.33 µM); inhibition at 10 µg/mL (VZV strain Ellen; Human alphaherpesvirus 3, read-out: % inhibition 10 ug/ml VZV, 10 ug/ml, VZV strain Ellen, HFF cells, ELISA): 52%
O=C(Nc1ccc(NC(=S)NCc2cc(F)cc(F)c2)cc1)c1ccccc1F [Example 580, N-{4-[3-(3,5-Difluoro-benzyl)-thioureido]-phenyl}-2-fluoro-benzamide]	> 10 µg/mL	–	–	–
C[C@H](NC(=S)Nc1ccc(NC(=O)c2nccc3ccccc23)cc1)c1ccc(Br)cc1 [Example 1107, Isoquinoline-1-carboxylic acid (4-{3-[(1S)-1-(4-bromo-phenyl)-ethyl]-thioureido}-phenyl)-amide]	–	8.1 µg/mL (≈ 16 µM)	0.05 µg/mL (≈ 0.0989 µM)	–
CN1CCN(c2cc(NC(=S)Nc3ccc(NC(=O)c4ccccc4F)cc3)cc(C(F)(F)F)c2)CC1 [Example 569, 2-Fluoro-N-(4-{3-[3-(4-methyl-piperazin-1-yl)-5-trifluoromethyl-phenyl]-thioureido}-phenyl)-benzamide]	–	> 0.5 µg/mL	3 µg/mL (≈ 5.64 µM)	–
CC(NC(=S)Nc1ccc(NC(=O)c2ccccc2F)cc1)c1ccc(C(F)(F)F)cc1F (stereo not shown) [Example 1106, 2-fluoro-N-(4-{[({1-[2-fluoro-4-(trifluoromethyl)phenyl]ethyl}amino)carbothioyl]amino}phenyl)benzamide]	> 7.5 µg/mL	–	–	IC50 ([1]; read-out: IC50 ug/ml HCMV): 1.1 µg/mL (≈ 2.29 µM)
O=C(Nc1ccc(NC(=S)Nc2cc(N3CCCCC3)cc(C(F)(F)F)c2)cc1)c1ccccc1F [Example 570, 2-Fluoro-N-{4-[3-(3-piperidin-1-yl-5-trifluoromethyl-phenyl)-thioureido]-phenyl}-benzamide]	–	> 0.5 µg/mL	> 10 µg/mL	–
C[C@H](NC(=S)Nc1ccc(NC(=O)c2nccc3ccccc23)cc1)c1ccc(C#N)cc1 [Example 1111]	–	> 10 µg/mL	–	IC50 (VZV strain Ellen; Human alphaherpesvirus 3, HFF, read-out: IC50 (ug/ml) VZV): 0.1 µg/mL (≈ 0.221 µM)
CC(NC(=S)Nc1ccc(NC(=O)c2ccccc2C#N)cc1)c1ccc(F)cc1 (stereo not shown) [Example 993, 2-Cyano-N-(4-{3-[1-(4-fluoro-phenyl)-ethyl]-thioureido}-phenyl)-benzamide]	2.7 µg/mL (≈ 6.45 µM)	–	–	–
C[C@@H](NC(=S)Nc1ccc(NC(=O)c2ccccc2F)cc1)c1ccc(Br)cc1 [Example 1005, N-(4-{3-[(1R)-1-(4-Bromo-phenyl)-ethyl]-thioureido}-phenyl)-2-fluoro-benzamide]	–	2.1 µg/mL (≈ 4.45 µM)	4.3 µg/mL (≈ 9.1 µM)	–
COc1ccccc1C(=O)Nc1ccc(NC(=S)N[C@H](C)c2ccc(Br)cc2)cc1 [Example 1105, N-(4-{3-[(1R)-1-(4-Bromo-phenyl)-ethyl]-thioureido}-phenyl)-2-methoxy-benzamide]	–	2.5 µg/mL (≈ 5.16 µM)	> 7.5 µg/mL	–
CC(NC(=S)Nc1ccc(NC(=O)c2ccccc2F)cc1)c1ccc(Br)cc1 (stereo not shown) [Example 1102, N-(4-{3-[1-(4-Bromo-phenyl)-ethyl]-thioureido}-phenyl)-2-fluoro-benzamide]	–	1.7 µg/mL (≈ 3.6 µM)	0.2 µg/mL (≈ 0.423 µM)	–
C[C@H](NC(=S)Nc1ccc(NC(=O)c2cc3ccccc3cn2)cc1)c1ccc(Br)cc1 [Example 1108, Isoquinoline-3-carboxylic acid (4-{3-[(1S)-1-(4-bromo-phenyl)-ethyl]-thioureido}-phenyl)-amide]	–	2.3 µg/mL (≈ 4.55 µM)	0.05 µg/mL (≈ 0.0989 µM)	–
O=C(Nc1ccc(NC(=S)NCCc2ccccc2)cc1)c1ccccc1F [Example 576, 2-Fluoro-N-[4-(3-phenethyl-thioureido)-phenyl]-benzamide]	8 µg/mL (≈ 20.3 µM)	–	–	IC50 ([1]; read-out: IC50 ug/ml HCMV): > 0.5 µg/mL
CN(C)c1ccc(CNC(=S)Nc2ccc(NC(=O)c3ccccc3F)cc2)cc1C(F)(F)F [Example 610, N-{4-[3-(4-Dimethylamino-3-trifluoromethyl-benzyl)-thioureido]-phenyl}-2-fluoro-benzamide]	–	> 0.5 µg/mL	> 10 µg/mL	–
O=C(Nc1ccc(NC(=S)NCc2cc(F)cc(C(F)(F)F)c2)cc1)c1ccccc1F [Example 586, 2-Fluoro-N-{4-[3-(3-fluoro-5-trifluoromethyl-benzyl)-thioureido]-phenyl}-benzamide]	> 10 µg/mL	–	–	–
CC(NC(=S)Nc1ccc(NC(=O)c2ccccc2C(F)(F)F)cc1)c1ccc(F)cc1 (stereo not shown) [Example 992, N-(4-{3-[1-(4-Fluoro-phenyl)-ethyl]-thioureido}-phenyl)-2-trifluoromethyl-benzamide]	1.2 µg/mL (≈ 2.6 µM)	–	–	IC50 ([1]; read-out: IC50 ug/ml HCMV): 4 µg/mL (≈ 8.67 µM)
CC(NC(=S)Nc1ccc(NC(=O)c2nccc3ccccc23)cc1)c1ccc(F)cc1 (stereo not shown) [Example 1110, Isoquinoline-1-carboxylic acid (4-{3-[1-(4-fluoro-phenyl)-ethyl]-thioureido}-phenyl)-amide]	0.05 µg/mL (≈ 0.112 µM)	–	–	IC50 ([1]; read-out: IC50 ug/ml HCMV): 3.3 µg/mL (≈ 7.42 µM)
O=C(Nc1ccc(NC(=S)NCc2ccc(F)c(C(F)(F)F)c2)cc1)c1ccccc1F [Example 623, 2-Fluoro-N-{4-[3-(4-fluoro-3-trifluoromethyl-benzyl)-thioureido]-phenyl}-benzamide]	> 10 µg/mL	–	–	–
CC(C)Cc1cc(NC(=S)Nc2ccc(NC(=O)c3ccccc3F)cc2)cc(C(F)(F)F)c1 [Example 578, 2-Fluoro-N-{4-[3-(3-isobutyl-5-trifluoromethyl-phenyl)-thioureido]-phenyl}-benzamide]	–	–	> 10 µg/mL	–
O=C(Nc1ccc(NC(=S)NCc2ccc(N3CCCCC3)c(C(F)(F)F)c2)cc1)c1ccccc1F [Example 616, 2-Fluoro-N-{4-[3-(4-piperidin-1-yl-3-trifluoromethyl-benzyl)-thioureido]-phenyl}-benzamide]	–	–	> 10 µg/mL	–
O=C(Nc1ccc(NC(=S)NCc2cc(Cl)cc(Cl)c2)cc1)c1ccccc1F [Example 583, N-{4-[3-(3,5-Dichloro-benzyl)-thioureido]-phenyl}-2-fluoro-benzamide]	–	–	10 µg/mL (≈ 22.3 µM)	–

— patent EP1137645B1, “ALPHA-METHYLBENZYL-CONTAINING THIOUREA INHIBITORS OF HERPES VIRUSES CONTAINING A […] GROUP” (Wyeth, priority 1998, dated 2000)
